In EPA's ToxRefDB 2:

Experiments:
rat [1] = conditions: Subchronic oral toxicity in rodents, wistar, Feed, dose end: 90 day, group: systemic
rat [2] = conditions: Subchronic oral toxicity in rodents, fischer, Feed, dose end: 13 week, group: systemic
rat [3] = conditions: Multigenerational reproductive toxicity study, sprague dawley, Oral, Feed, dose end: 2 generation
rat [4] = conditions: Combined chronic toxicity/carcinogenicity, fischer, Oral, Feed, dose end: 24 month, group: systemic
mouse [5] = conditions: Sub-acute repeat dose toxicity, cd1, Oral, Feed, dose end: 4 week, group: systemic
mouse [6] = conditions: Carcinogenicity; cd1; Oral; Feed; dose end: 18 month; group: systemic; systemic / pathology gross / kidney / reduced size + systemic / pathology microscopic / kidney / inflammation + systemic / pathology …
rat [7] = conditions: Multigenerational reproductive toxicity study, sprague dawley, Oral, Feed, dose end: 2 generation; remark: listed apart in the source
[8] = systemic / pathology microscopic / kidney / inflammation + systemic / in life observation / mortality / mortality + systemic / pathology …
[9] = group: offspring, developmental / offspring survival late / viability index / viability index
[10] = group: offspring, developmental / offspring survival late / viability index / viability index + systemic / in life observation / body weight / offspring (pup…
[11] = group: parental, systemic / organ weight / kidney / relative to body weight
[12] = group: parental, systemic / organ weight / kidney / relative to body weight + systemic / organ weight / kidney / absolute + systemic / pathology gross / …
[13] = systemic / in life observation / clinical signs / perineal soiling + systemic / organ weight / adrenal gland / relative to body weight + …
[14] = systemic / pathology microscopic / kidney / degeneration
[15] = systemic / pathology microscopic / kidney / degeneration + systemic / in life observation / body weight / body weight gain + systemic / in …
[16] = group: parental, systemic / organ weight / kidney / absolute + systemic / organ weight / kidney / relative to body weight
[17] = group: reproductive, reproductive / offspring survival early / dead fetuses / dead fetuses + reproductive / offspring survival early / litter size / litter size

Nc1c(Cl)c(F)nc(OCC(=O)O)c1Cl [Fluroxypyr]
LEL (rat [1]; [8]): 750 mg/kg/day | LOAEL (rat [1]; [8]): 750 mg/kg/day | NEL (rat [1]; systemic / urinalysis / ph / ph + systemic / clinical chemistry / alanine aminotransferase (alt/sgpt) / alanine aminotransferase (alt/sgpt…): 80 mg/kg/day | LEL (rat [2]; systemic / hematology / hemoglobin (hgb) / hemoglobin (hgb) + systemic / urinalysis / specific gravity/osmolality / specific gravity/…): 700 mg/kg/day | NEL (rat [2]; systemic / in life observation / body weight / body weight gain + systemic / organ weight / testes / absolute + systemic / hematology / …): 320 mg/kg/day | NOAEL (rat [2]; systemic / organ weight / brain / absolute + systemic / hematology / erythrocyte (rbc) count differential / erythrocyte (rbc) + systemic / …): 700 mg/kg/day | LOAEL (rat [2]; systemic / organ weight / brain / absolute + systemic / in life observation / body weight / body weight gain + systemic / organ weight / …): 1000 mg/kg/day | LEL (rat [3]; [9]): 500 mg/kg/day | LOAEL (rat [3]; [9]): 500 mg/kg/day | NEL (rat [3]; [10]): 100 mg/kg/day | NOAEL (rat [3]; [10]): 100 mg/kg/day | LEL (rat [3]; [11]): 100 mg/kg/day | NEL (rat [3]; [11]): < 100 mg/kg/day | LOAEL (rat [3]; [12]): 500 mg/kg/day | NOAEL (rat [3]; [12]): 100 mg/kg/day | LEL (rat [4]; [13]): 100 mg/kg/day | NEL (rat [4]; [13]): < 100 mg/kg/day | NOAEL (rat [4]; [13]): 100 mg/kg/day | LOAEL (rat [4]; systemic / organ weight / kidney / relative to body weight + systemic / pathology microscopic / kidney / nephropathy + systemic / organ …): 500 mg/kg/day | LEL (mouse [5]; [14]): 132 mg/kg/day | LOAEL (mouse [5]; [14]): 132 mg/kg/day | NEL (mouse [5]; [15]): 14 mg/kg/day | NOAEL (mouse [5]; [15]): 14 mg/kg/day | LEL (mouse [6]): 1000 mg/kg/day | LOAEL (mouse [6]): 1000 mg/kg/day | NEL (mouse [6]): 300 mg/kg/day | NOAEL (mouse [6]): 300 mg/kg/day | LEL (rat [7]; group: offspring, developmental / developmental malformation / general / runts): 500 mg/kg/day | NEL (rat [7]; group: offspring, developmental / developmental malformation / general / runts + developmental / developmental malformation / eye / anophthalmia + …): 100 mg/kg/day | NOAEL (rat [7]; group: offspring, developmental / developmental malformation / general / runts + systemic / in life observation / body weight / offspring (pup) weight gain + …): 500 mg/kg/day | LOAEL (rat [7]; group: offspring, systemic / in life observation / body weight / offspring (pup) weight gain + systemic / in life observation / body weight / offspring (pup) …): 750 mg/kg/day | NOAEL (rat [7]; group: parental, systemic / organ weight / kidney / absolute + systemic / in life observation / body weight / body weight + systemic / in life observation / …): 100 mg/kg/day | LEL (rat [7]; [16]): 100 mg/kg/day | NEL (rat [7]; [16]): < 100 mg/kg/day | LOAEL (rat [7]; group: parental, systemic / organ weight / kidney / absolute + systemic / organ weight / kidney / relative to body weight + systemic / pathology microscopic…): 500 mg/kg/day | LEL (rat [7]; [17]): 750 mg/kg/day | LOAEL (rat [7]; [17]): 750 mg/kg/day | NEL (rat [7]; [17]): 500 mg/kg/day | NOAEL (rat [7]; [17]): 500 mg/kg/day
